The text below walks through data of US9611223B2, “3-aryl-5-substituted-isoquinolin-1-one compounds and their therapeutic use” (INSTITUTE OF CANCER RESEARCH: ROYAL CANCER HOSPITAL (THE), priority 2013, dated 2017).

Holding throughout (assay type): cell-based
One experiment concerns Wnt signalling. Description: Wnt-Luciferase Reporter Assay. Conditions: DLD1-Wnt-Luc cells, 20-22 hours. As to the method:
Wnt-Luciferase Reporter Assay
A Wnt dependent cell line (i.e., DLD1 colorectal adenocarcinoma cell line) was transduced with replication incompetent VSV-g pseudotyped lentiviral particles expressing the firefly luciferase gene under the control of minimal cytomegalovirus (mCMV) promoter and tandem repeats of the TCF/LEF transcriptional response element.
DLD1-Wnt-Luc cells were seeded (5000 cells/well) in a 96-well plate (Greiner Bio-One, cat. no. 655098) in Dubelco's Modified Eagle Medium (DMEM, SFBCO/Invitrogen, cat no. 41965-039) supplemented with Fetal Bovine Serum (FBS, 10%, SFBCO/Invitrogen, cat no. 10108-165). After overnight incubation, the media was replaced with OptiMEM (SFBCO/Invitrogen, cat no. 11058-021) supplemented with FBS (0.5%) and non-essential amino acids (1%, SFBCO/Invitrogen, cat no. 11140-035) and the appropriate putative TNKS inhibitor at a final concentration of 10 μM, 3 μM, 1 μM, 0.30 μM, 0.10 μM, 0.030 μM, 0.010 μM and 0 μM with 1% (v/v) final DMSO in double-triplicate wells. Positive control includes the use of XAV-939 (Maybridge, FisherScientific, 3,5,7,8-tetrahydro-2-[4-(trifluoromethyl)phenyl]-4H-thiopyrano[4,3-d]pyrimidin-4-one, cat. no. RF03920, see: Huang et al., Nature, 2009, Vol. 461, pp. 614-620). Cells were incubated for 20-22 hours before assaying for luciferase (first set of triplicates: Wnt activation) and viability (second set of triplicates: cell survival for data normalisation vs Wnt-activation) using ONE-Glo (Promega, cat. no. E6110) and CellTiter-Glo (Promega, cat. no. G7570) reagents consecutively. The assay was measured using a Victor^2 plate reader. The data were normalised to the DMSO control and were expressed as % Wnt activity as a function of inhibitor dose. Dose response curves used to determine IC50 values were Log transformed and analysed by non-linear regression analysis (variable slope) using Prism (GraphPad Software, Inc).
On the technique in general: In a reporter assay the amount or activity of a reporter protein is the signal.

The subject of the next experiment is HT55 cells. Description: Tumour Cell Inhibition Assay (HT55 cells). Conditions: Homo sapiens, HT55, 120 h, Tumour Cell Inhibition Assay, five day exposure. On the procedure:
(§1) Tumour Cell Inhibition in Colorectal Tumour Cells
(§2) In order to determine the efficacy of acute dosing of putative TNKS inhibitors, five day exposure cell viability assays were carried out. This included the sparse seeding of cells in a 96-well plate followed by continuous dosing of cells over a five day period.
(§3) Appropriate cell lines (HT55, COLO320DM and SW620) were seeded at 500 cells/well in a 96-well plate in MEM (HT55), RPMI (COLO320DM) or DMEM (SW620) supplemented with FBS. After overnight incubation, cells were treated with the appropriate putative TNKS inhibitor in 6 or 10 concentrations ranging from 0 μM to 10 μM at 0.2% final DMSO concentration in appropriate media supplemented with 10% or 0.5% FBS. Dosages were carried out in triplicate. Termination of the assay and measurement of cell viability was achieved by the use of Cell Titre Glo reagent and luminescence measurement on an appropriate plate reader.
(§4) Dose response curves used to determine SF50 values were Log transformed and analysed by non-linear regression analysis (variable slope) using Prism (GraphPad Software, Inc).

The subject of another experiment is SW620 cells. As to the kind of experiment: Tumour Cell Inhibition Assay (SW620 cells). Conditions: Homo sapiens, SW-620, 120 h, five day exposure. On the procedure:
as §1, §2, §3, §4

The test system of the next experiment is DLD1 cells. As to the kind of experiment: Long-Term Clonogenic Assay (DLD1 cells). Conditions: Homo sapiens, DLD-1, 12-14 days, read-out: cell inhibitory SF50 (DLD1). On the procedure: Clonogenic Inhibition in DLD1 or HT55 Cells
In order to determine the efficacy of chronic dosing of putative TNKS inhibitors, long term clonogenic or ‘colony formation’ assays were carried out. This included the sparse seeding of cells in a 6-well dish followed by continuous dosing of cells over 12-14 days (depending on relative cell growth). Appropriate cell lines (DLD1 or HT55) were seeded at 500 cells/well in a 6-well dish in DMEM supplemented with FBS. After overnight incubation, cells were treated with the appropriate putative TNKS inhibitor at 10 μM, 3 μM, 1 μM, 0.30 μM, 0.1 μM and 0 μM at 0.2-1% final DMSO concentration (cell line dependent) in DMEM supplemented with 10% FBS (DLD1 cells were dosed in DMEM supplemented with 0.5% FBS). Dosages were carried out in triplicate. Cell media containing compound or DMSO only was replenished every 48 hours. On termination of the assay, plates were read with Cell Titre Glo reagent and luminescence measured on an appropriate plate reader.
The data was normalised to the DMSO control and was expressed as surviving fraction as a function of inhibitor dose. Dose response curves used to determine SF50 values were Log transformed and analysed by non-linear regression analysis (variable slope) using Prism (GraphPad Software, Inc).

Structures are written as SMILES. Where two headings read alike, the source gives them in different places.

For `CN(C)C1CCN(Cc2ccc(-c3cc4c(C#N)cccc4c(=O)[nH]3)cc2)C1` (stereo not drawn) [IQ-011], the IC50 in the experiment with Wnt signalling is under 300 nM; with HT55 cells (read-out: cell inhibitory SF50 (HT55)) it was under 5000 nM.

Turning to `CN(C)C1CCN(Cc2ccc(-c3cc4c(C#N)cccc4c(=O)[nH]3)cc2)CC1` [IQ-012], the IC50 is 3000 nM in the experiment on SW620 cells (read-out: cell inhibitory SF50 (SW620)); 1700 nM with SW620 cells (replicate, read-out: cell inhibitory SF50 (SW620), replicate); under 300 nM with Wnt signalling; 1800 nM in the experiment with HT55 cells (replicate, read-out: cell inhibitory SF50 (HT55), replicate).

`CN1CCN(Cc2ccc(-c3cc4c(C#N)cccc4c(=O)[nH]3)cc2)CC1` [IQ-002, 3-[4-(4-Methyl-piperazin-1-ylmethyl)-phenyl]-1-oxo-1,2-dihydro-isoquinoline-5-carbonitrile]: the IC50 is 2300 nM with DLD1 cells and under 300 nM in the experiment with Wnt signalling.

For the compound `CN1CCN(Cc2ccc(-c3cc4c(C#N)cc(F)cc4c(=O)[nH]3)cc2)CC1` [IQ-014], in the experiment on Wnt signalling, the IC50 is under 300 nM.
